pEC50, pKi: −log10 of the molar value.

The test system of one assay is RS4;11 cells. The assay is described as follows: Cell viability assay (CellTiter-Glo) in RS4;11 cells. The class given is cell-based. To be noted: 10% Human Serum. On the procedure: The acute lymphoblastic leukemia (ALL) human cell line RS4;11 (ATCC, Manassas VA) was used as the primary human cell line to assess the cellular activity of compound of the present Examples in vitro and their efficacy in vivo. […] The acute lymphoblastic leukemia cell line Molt-4, which is derived from immature T-lymphoid cells (T-ALL), was used as a counter screen assay.
3000 Cells (0.1×10^6/mL) were seeded in each well of 384-well plate and were treated for 24 hours in a humidified chamber with 5% CO2. Cell viability was determined by CellTiter-Glo as described by the manufacturer's instructions (Promega Corporation, Madison, WI, USA).

For the next assay, the system named is Molt-4 cells. In words: Cell viability counter screen (CellTiter-Glo) in Molt-4 cells. The settings on record: 24 hours, 10% Human Serum. The class given is cell-based. Summed up:
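3000 cells/well (0.1×10^6/mL) were treated with compound for 24 hours in 5% CO2. Viability read by CellTiter-Glo luminescence; Molt-4 (T-ALL) served as the counter screen to RS4;11 (ALL).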

For another assay, the target named is Bcl-xL protein (Homo sapiens (Human), UniProt Q07817). In words: TR-FRET binding assay, Bcl-xL. The settings on record: F-Bak peptide probe.
A further assay concerns the target Bcl-2 protein (Homo sapiens (Human), UniProt P10415). In words: TR-FRET binding assay, Bcl-2. To be noted: F-Bak peptide probe, GST-Bcl-2.

Sequence of Bcl-2 protein (P10415 other isoform, or with tags, fused parts or gaps): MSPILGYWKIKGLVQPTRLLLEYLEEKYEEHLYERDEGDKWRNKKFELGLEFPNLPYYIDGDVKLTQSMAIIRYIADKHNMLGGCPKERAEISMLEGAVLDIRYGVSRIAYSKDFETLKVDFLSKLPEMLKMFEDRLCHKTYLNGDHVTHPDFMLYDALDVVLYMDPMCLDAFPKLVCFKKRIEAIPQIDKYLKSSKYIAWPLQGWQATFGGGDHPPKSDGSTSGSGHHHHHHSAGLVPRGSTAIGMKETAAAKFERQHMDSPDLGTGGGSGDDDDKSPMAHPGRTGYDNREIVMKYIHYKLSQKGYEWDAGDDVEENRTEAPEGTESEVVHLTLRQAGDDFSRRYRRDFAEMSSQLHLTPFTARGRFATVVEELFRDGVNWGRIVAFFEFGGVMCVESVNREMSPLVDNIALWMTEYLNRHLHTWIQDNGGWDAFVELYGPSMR
Sequence of Bcl-xL protein (Q07817 other isoform, or with tags, fused parts or gaps): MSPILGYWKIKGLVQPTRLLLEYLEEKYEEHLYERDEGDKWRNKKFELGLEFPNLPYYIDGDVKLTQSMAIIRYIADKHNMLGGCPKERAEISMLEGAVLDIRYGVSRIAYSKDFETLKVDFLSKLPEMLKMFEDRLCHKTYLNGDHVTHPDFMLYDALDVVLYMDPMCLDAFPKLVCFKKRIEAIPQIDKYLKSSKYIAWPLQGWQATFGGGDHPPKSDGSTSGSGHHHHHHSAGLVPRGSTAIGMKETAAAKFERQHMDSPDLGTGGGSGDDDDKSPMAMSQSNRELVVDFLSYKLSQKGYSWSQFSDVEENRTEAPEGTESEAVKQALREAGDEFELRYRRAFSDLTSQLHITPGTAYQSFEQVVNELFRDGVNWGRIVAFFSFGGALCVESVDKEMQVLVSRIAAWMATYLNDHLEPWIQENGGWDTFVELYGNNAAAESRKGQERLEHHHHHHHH

As for `CO[C@H]1C[C@H](CNc2ccc(S(=O)(=O)NC(=O)c3ccc(N4CCN5CC6=C(c7ccc(Cl)cc7)CC(C)(C)C[C@H]6OCCCOC[C@@H]5C4)cc3N3CCCOc4nc5[nH]ccc5cc43)cc2[N+](=O)[O-])C1` [Example 41, 4-((4aS,10aR)-14-(4-chlorophenyl)-12,12-dimethyl-1,2,4a,5,8,9,10a,11,13,15-decahydro-7H,12H-benzo[f]pyrazino[2,1-c][1,8]dioxa[4]azacycloundecin-3(4H)-yl)-2-(3,4-dihydro-2H-pyrrolo[3′,2′:5,6]pyrido[2,3-b][1,4]oxazepin-1(7H)-yl)-N-((4-((((1r,3r)-3-methoxycyclobutyl)methyl)amino)-3-nitrophenyl)sulfonyl)benzamide], the pEC50 in the assay on RS4;11 cells (24 hours) is 8.41; in the assay with Molt-4 cells, less than 5.00. In addition, the results for the pKi on Bcl-xL protein and at Bcl-2 protein were 7.60 and 9.65, respectively.

Take `CC1(C)CC(c2ccc(Cl)cc2)=C2CN3CCN(c4ccc(C(=O)NS(=O)(=O)c5ccc(NCC6(O)CCOCC6)c([N+](=O)[O-])c5)c(N5CCCOc6nc7[nH]ccc7cc65)c4)C[C@H]3COCCCO[C@@H]2C1` [Example 18, 4-((4aS,10aR)-14-(4-chlorophenyl)-12,12-dimethyl-1,2,4a,5,8,9,10a,11,13,15-decahydro-7H,12H-benzo[f]pyrazino[2,1-c][1,8]dioxa[4]azacycloundecin-3(4H)-yl)-2-(3,4-dihydro-2H-pyrrolo[3′,2′:5,6]pyrido[2,3-b][1,4]oxazepin-1(7H)-yl)-N-((4-(((4-hydroxytetrahydro-2H-pyran-4-yl)methyl)amino)-3-nitrophenyl)sulfonyl)benzamide]: the negative logarithm of the EC50 (pEC50) is 8.84 in the assay on RS4;11 cells (24 hours) and 6.37 with Molt-4 cells. In addition, the pKi at Bcl-xL protein was 8.08; on Bcl-2 protein, 9.65.

With `CC1(C)CC(c2ccc(Cl)cc2)=C2CN3CCN(c4ccc(C(=O)NS(=O)(=O)c5ccc(NC[C@H]6C[C@](O)(C7CCC7)C6)c([N+](=O)[O-])c5)c(N5CCCOc6nc7[nH]ccc7cc65)c4)C[C@H]3COCCCO[C@@H]2C1` [Example 15, 4-((4aS,10aR)-14-(4-chlorophenyl)-12,12-dimethyl-1,2,4a,5,8,9,10a,11,13,15-decahydro-7H,12H-benzo[f]pyrazino[2,1-c][1,8]dioxa[4]azacycloundecin-3(4H)-yl)-2-(3,4-dihydro-2H-pyrrolo[3′,2′:5,6]pyrido[2,3-b][1,4]oxazepin-1(7H)-yl)-N-((4-((((1s,3s)-1-hydroxy-[1,1′-bi(cyclobutan)]-3-yl)methyl)amino)-3-nitrophenyl)sulfonyl)benzamide], the pEC50 in the assay on RS4;11 cells (24 hours) was 8.25; in the assay with Molt-4 cells it was 5.59. Besides, the pKi at Bcl-xL protein is 7.86; at Bcl-2 protein it was 9.26.

With `CO[C@H]1CC[C@H](COc2ccc(S(=O)(=O)NC(=O)c3ccc(N4CCN5CC6=C(c7ccc(Cl)cc7)CC(C)(C)C[C@H]6OCCCOC[C@@H]5C4)cc3N3CCCOc4nc5[nH]ccc5cc43)cc2[N+](=O)[O-])OC1` [Example 33, 4-((4aS,10aR)-14-(4-chlorophenyl)-12,12-dimethyl-1,2,4a,5,8,9,10a,11,13,15-decahydro-7H,12H-benzo[f]pyrazino[2,1-c][1,8]dioxa[4]azacycloundecin-3(4H)-yl)-2-(3,4-dihydro-2H-pyrrolo[3′,2′:5,6]pyrido[2,3-b][1,4]oxazepin-1(7H)-yl)-N-((4-(((2R,5S)-5-methoxytetrahydro-2H-pyran-2-yl)methoxy)-3-nitrophenyl)sulfonyl)benzamide], the pEC50 in the assay with RS4;11 cells (24 hours) was 8.46; in the assay on Molt-4 cells, 5.22. Also, the pKi was 7.54 on Bcl-xL protein and 9.57 on Bcl-2 protein.

Consider `CC1(C)CC(c2ccc(Cl)cc2)=C2CN3CCN(c4ccc(C(=O)NS(=O)(=O)c5ccc(NC[C@H]6CC[C@H](N7CCOCC7)CC6)c([N+](=O)[O-])c5)c(N5CCCOc6nc7[nH]ccc7cc65)c4)C[C@H]3COCCCO[C@@H]2C1` [Example 28, 4-((4aS,10aR)-14-(4-chlorophenyl)-12,12-dimethyl-1,2,4a,5,8,9,10a,11,13,15-decahydro-7H,12H-benzo[f]pyrazino[2,1-c][1,8]dioxa[4]azacycloundecin-3(4H)-yl)-2-(3,4-dihydro-2H-pyrrolo[3′,2′:5,6]pyrido[2,3-b][1,4]oxazepin-1(7H)-yl)-N-((4-((((1r,4r)-4-morpholinocyclohexyl)methyl)amino)-3-nitrophenyl)sulfonyl)benzamide], for which the results for the pEC50 in the assay on RS4;11 cells (24 hours) and with Molt-4 cells were 9.06 and 6.56, respectively. Also, the pKi on Bcl-xL protein was 8.33; on Bcl-2 protein, 9.08.

In the case of `CN1CCC(Nc2ccc(S(=O)(=O)NC(=O)c3ccc(N4CCN5CC6=C(c7ccc(Cl)cc7)CC(C)(C)C[C@H]6OCCCOC[C@@H]5C4)cc3N3CCCOc4nc5[nH]ccc5cc43)cc2[N+](=O)[O-])CC1` [Example 31, 4-((4aS,10aR)-14-(4-chlorophenyl)-12,12-dimethyl-1,2,4a,5,8,9,10a,11,13,15-decahydro-7H,12H-benzo[f]pyrazino[2,1-c][1,8]dioxa[4]azacycloundecin-3(4H)-yl)-2-(3,4-dihydro-2H-pyrrolo[3′,2′:5,6]pyrido[2,3-b][1,4]oxazepin-1(7H)-yl)-N-((4-((1-methylpiperidin-4-yl)amino)-3-nitrophenyl)sulfonyl)benzamide], the values for the pEC50 in the assay with RS4;11 cells (24 hours) and in the assay on Molt-4 cells were 8.49 and 5.91, respectively. In addition, the pKi on Bcl-xL protein is 8.24; at Bcl-2 protein, 9.29.

Take `C[C@@H]1CO[C@@H](COc2ccc(S(=O)(=O)NC(=O)c3ccc(N4CCN5CC6=C(c7ccc(Cl)cc7)CC(C)(C)C[C@H]6OCCCOC[C@@H]5C4)cc3N3CCCOc4nc5[nH]ccc5cc43)cc2[N+](=O)[O-])CO1` [Example 20, 4-((4aS,10aR)-14-(4-chlorophenyl)-12,12-dimethyl-1,2,4a,5,8,9,10a,11,13,15-decahydro-7H,12H-benzo[f]pyrazino[2,1-c][1,8]dioxa[4]azacycloundecin-3(4H)-yl)-2-(3,4-dihydro-2H-pyrrolo[3′,2′:5,6]pyrido[2,3-b][1,4]oxazepin-1(7H)-yl)-N-((4-(((2R,5R)-5-methyl-1,4-dioxan-2-yl)methoxy)-3-nitrophenyl)sulfonyl)benzamide]: the pEC50 in the assay on RS4;11 cells (24 hours) was 8.28; in the assay with Molt-4 cells it was 5.79. Further, the pKi at Bcl-xL protein is 7.76; on Bcl-2 protein, 9.01.

In the case of `CC1(C)CC(c2ccc(Cl)cc2)=C2CN3CCN(c4ccc(C(=O)NS(=O)(=O)c5ccc(NC[C@H]6CC[C@H](O)CO6)c([N+](=O)[O-])c5)c(N5CCCOc6nc7[nH]ccc7cc65)c4)C[C@H]3COCCCO[C@@H]2C1` [Example 12, 4-((4aS,10aR)-14-(4-chlorophenyl)-12,12-dimethyl-1,2,4a,5,8,9,10a,11,13,15-decahydro-7H,12H-benzo[f]pyrazino[2,1-c][1,8]dioxa[4]azacycloundecin-3(4H)-yl)-2-(3,4-dihydro-2H-pyrrolo[3′,2′:5,6]pyrido[2,3-b][1,4]oxazepin-1(7H)-yl)-N-((4-((((2R,5S)-5-hydroxytetrahydro-2H-pyran-2-yl)methyl)amino)-3-nitrophenyl)sulfonyl)benzamide], the pEC50 with RS4;11 cells (Homo sapiens, RS4-11, 24 h) was 9.02; with Molt-4 cells, 6.08. Also, the pKi was 8.21 on Bcl-xL protein and 9.05 at Bcl-2 protein.

`CC1(C)CC(c2ccc(Cl)cc2)=C2CN3CCN(c4ccc(C(=O)NS(=O)(=O)c5ccc(NC[C@H]6CC[C@](O)(CF)CC6)c([N+](=O)[O-])c5)c(N5CCCOc6nc7[nH]ccc7cc65)c4)C[C@H]3COCCCO[C@@H]2C1` [Example 14, 4-((4aS,10aR)-14-(4-chlorophenyl)-12,12-dimethyl-1,2,4a,5,8,9,10a,11,13,15-decahydro-7H,12H-benzo[f]pyrazino[2,1-c][1,8]dioxa[4]azacycloundecin-3(4H)-yl)-2-(3,4-dihydro-2H-pyrrolo[3′,2′:5,6]pyrido[2,3-b][1,4]oxazepin-1(7H)-yl)-N-((4-((((1s,4s)-4-(fluoromethyl)-4-hydroxycyclohexyl)methyl)amino)-3-nitrophenyl)sulfonyl)benzamide]: the pEC50 with RS4;11 cells (24 hours) was 8.79; with Molt-4 cells it was 5.76. Moreover, the pKi is 7.68 at Bcl-xL protein and 9.62 on Bcl-2 protein.

For `CC1(C)CC(c2ccc(Cl)cc2)=C2CN3CCN(c4ccc(C(=O)NS(=O)(=O)c5ccc(OCC6CCOCC6)c([N+](=O)[O-])c5)c(N5CCCOc6nc7[nH]ccc7cc65)c4)C[C@H]3COCCCO[C@@H]2C1` [Example 46, 4-((4aS,10aR)-14-(4-chlorophenyl)-12,12-dimethyl-1,2,4a,5,8,9,10a,11,13,15-decahydro-7H,12H-benzo[f]pyrazino[2,1-c][1,8]dioxa[4]azacycloundecin-3(4H)-yl)-2-(3,4-dihydro-2H-pyrrolo[3′,2′:5,6]pyrido[2,3-b][1,4]oxazepin-1(7H)-yl)-N-((3-nitro-4-((tetrahydro-2H-pyran-4-yl)methoxy)phenyl)sulfonyl)benzamide], the pEC50 was 8.03 in the assay with RS4;11 cells (24 hours) and less than 5.00 in the assay with Molt-4 cells. The pKi at Bcl-xL protein was 7.66; at Bcl-2 protein, 9.69.

These data come from patent US20250066388A1, “1,3,4,7-TETRAHYDRO-2H-PYRROLO[3',2':5,6]PYRIDO[2,3-B][1,4]OXAZEPINE BCL-2 INHIBITORS” (AbbVie Inc., priority 2022, published 2025).
